Consider four molecules from ChEMBL document CHEMBL1121620, “Glycerides as prodrugs. 2. 1,3-Dialkanoyl-2-(2-methyl-4-oxo-1,3-benzodioxan-2-yl)glycerides (cyclic aspirin triglycerides) as antiinflammatory agents” (1980).

Holding throughout (format): functional
Experiment [1] relates to Rattus norvegicus. Kind of experiment: Antiedema efficacy was measured in male Sprague-Dawley rats relative to aspirin; activity expressed as percent of aspirin.
The species named for experiment [2] is Rattus norvegicus. The experiment in a line: Effective dose of compound to produce 25% inhibition in rat; Value ranges from 326-499.
The species named for experiment [3] is Rattus norvegicus. The experiment in a line: Compound was tested for 50% inhibition of incidence of lesions (UD50) in rat.
Experiment [4] is described as follows: Ratio between ulcerogenicity and anti edema activity (UD50/ED25).

In the case of `CC(=O)Oc1ccccc1C(=O)O` [ASPIRIN], the Activity in the experiment on Rattus norvegicus [1] is given as 100%. The ED25 in the experiment listed under Rattus norvegicus [2] amounted to 402 µM/kg.
The molecule `CCCCCCCCCCCCCCCC(=O)OCC(COC(=O)CCCCCCCCCCCCCCC)OC1(C)OC(=O)c2ccccc2O1` (configuration not stated) came in with an Activity in the experiment with Rattus norvegicus [1] of 62%.
On the same count and under the same terms, to `CC(=O)OCC(COC(C)=O)OC1(C)OC(=O)c2ccccc2O1` (configuration not stated) belongs 62%.
`CCCCCCCCCC(=O)OCC(COC(=O)CCCCCCCCC)OC1(C)OC(=O)c2ccccc2O1` (configuration not stated) registered an Activity in the experiment with Rattus norvegicus [1] of 100%. The UD50 in the experiment filed under Rattus norvegicus [3] amounted to 4102 µM/kg. Moreover, the Ratio in experiment [4] was 10.6.
